These are literature values, as cited in paper PMC5611894 (Journal of Alzheimer's Disease, 2017).

Usually Kd stands for the equilibrium constant for the complex coming apart.

For series [1], the target named is Aβ42 monomers. To be noted: SPR equilibrium binding, Aβ42 monomers immobilized on chip.
In series [2] the target is Aβ42 oligomers. To be noted: SPR equilibrium binding, Aβ42 oligomers immobilized on chip.

For `CC[C@]12C=CCN3CC[C@]4(C(=C(C(=O)OC)C1)Nc1ccccc14)[C@@H]32` [tabersonine], the figures for the Kd in series [1] and in series [2] were 69 µM and 535 µM, respectively.
